Values after ≈ are worked out from the molar mass of the structure shown. Values joined by “and” are separate entries in the source; they are usually repeats but may differ in a detail not shown here. Equal entries are not always repeated.
Tests used:
[1] = system: Pseudomonas aeruginosa PA14; assay: MIC against P. aeruginosa PA14 in LB broth; format: cell-based
Description: (§1) Overnight cultures were diluted 1:150 in LB broth and added to a 96-well plate. Antibiotics were serially diluted 1:2 and added to columns of the 96-well plate and grown at 37 °C with continuous shaking. Cell growth was measured using optical density at 600 nm (OD600). MIC assays were performed in either BioTek Synergy HT or Tecan InfiniteM200 Pro microplate readers.

[2] = system: Escherichia coli NCM-3722; assay: MIC against E. coli NCM-3722 in LB broth; format: cell-based; conditions: NCM3722, 16 h, 37 °C, OD600
Description: as §1

[3] = system: Staphylococcus epidermidis EGM-206; assay: MIC against S. epidermidis EGM-206 in LB broth; format: cell-based; conditions: EGM206, 16 h, 37 °C, OD600
Description: as §1

[4] = system: Acinetobacter baumannii ATCC 17978; assay: MIC (WuXi, Mueller–Hinton broth) against A. baumannii ATCC 17978; format: cell-based; conditions: ATCC17978, performed by WuXi
Description: (§2) Bacterial colonies (4–8) of strains of interest were vortexed in saline and adjusted to an OD600 of 0.2. Strains were diluted 1:200 into CAMHB media in 96-well plates. Antibiotics were serially diluted 1:3 in DMSO, and 1 μl of each dilution was added to bacteria. The plates were incubated for 18–20 h at 37 °C before observation.

[5] = system: Escherichia coli ATCC BAA-198; assay: MIC (WuXi, Mueller–Hinton broth) against E. coli ATCC BAA-198; format: cell-based; conditions: ATCCBAA198
Description: as §2

[6] = biological target: T1, E. coli DHFR (FolA) (Escherichia coli, UniProt P0ABQ4); assay: In vitro DHFR activity, purified E. coli FolA; format: biochemical; conditions: for fractional initial velocity: E. coli FolA
T1 construct: purchased Genscript
Description: As described previously, purified E. coli dihydrofolate reductase (FolA) was purified by Genscript. Enzyme activity was measured on a QuantaMaster 40 spectrophotometer (Photon Technology) using the DHFR reductase assay kit with slight modifications. E. coli FolA was diluted 1:1,000 into 1× assay buffer. Of this mixture, 100 μl with or without compound was added to a BRAND UV cuvette (Sigma-Aldrich BR759200) and sample transmitted light intensity at 340 nm was measured for 100 s at 1 kHz sampling. Readings were averaged for every 1 Hz and the activity of each sample was calculated from the slope (β) of a linear regression of the log-transformed intensity measurements on MATLAB R2022B. To account for enzyme stability, measurements were normalized to a standard condition (60 μM NADPH and 100 μM DHF) measured immediately before the sample of interest. The relative activity was calculated as (βsample − βnoEnzyme)/(βstandard − βnoEnzyme).

[7] = system: P. aeruginosa PA14 folate metabolism (dUMP, AICAR, GAR); assay: Metabolomics (LC–MS) of treated PA14; format: cell-based, Pseudomonas aeruginosa; conditions: PA14, 15 min
Description: Metabolites were extracted by vacuum filtering 15 ml of treated cells using 0.45 μm HNWP Millipore nylon membranes and placing the filters into an ice-cold quenching solution of 40:40:20 methanol:acetonitrile:H2O. Extracts were kept on dry ice for 1 h and centrifuged at 16,000 g for 1 h at 4 °C. The supernatant was kept at -80 °C until mass spectrometry analysis. Liquid chromatography-mass spectrometry (LC-MS) analysis of metabolites was performed on an Orbitrap Exploris 240 mass spectrometer coupled with hydrophilic interaction liquid chromatography (HILIC)[68]. […] Waters 196006724), with a gradient of solvent A (95 vol. % H2O, 5 vol. % acetonitrile, with 20 mM ammonium acetate and 20 mM ammonium hydroxide, pH 9.4) and solvent B (acetonitrile). Flow rate was 0.15 ml min^-1 and column temperature was set at 25 °C. […] Raw mass spectrometry data were converted to mzXML format by MSConvert (ProteoWizard). Pick-peaking was done on […].0.8.0, Elucidata).

[8] = system: E. coli lptD4213; assay: Growth of E. coli lptd4213 with fluorofolin (with or without SMX) and thymidine or TMI; format: cell-based, Escherichia coli; conditions: fluorofolin 50 μg/mL, 0.3 mM thymidine
Description: Where listed, growth media were prepared according manufacturer recommendations: LB broth and LB broth supplemented with 0.3 mM thymine (BD Biosciences 244610, Alfa Aesar A15879), 0.3 mM methionine (Sigma-Aldrich M9625), 0.3 mM inosine (EMD Millipore 4060), cation-adjusted Mueller–Hinton II broth (CAMHB) (BD 212322) or 0.3 mM thymidine (Sigma-Aldrich T1895), Gutnick minimal media (1.0 g l^−1 K2SO4, 13.5 g l^−1 K2HPO4, 4.7 g l^−1 KH2PO4, 0.1 g l^−1 MgSO4·7H2O, 10 mM NH4Cl as a nitrogen source and 0.4% w/v glucose as a carbon source)[65].
Extended Data Fig. 3 TMI supplementation can also rescue other species from fluorofolin DHFR inhibition. […] (f) P. aeruginosa PA14 or E. coli lptd4213 treated with fluorofolin 50 μg/mL in the presence or absence of 0.3 mM thymidine. (g) E. coli lptd4213 treated with fluorofolin 50 μg/mL and SMX (78.1 μg/mL) in the presence or absence of 0.3 mM thymidine or 0.3 mM TMI supplementation, Curves represent average optical at 600 nm (OD600) of 2 biological replicates. Means are shown. Source data

[9] = 2× MIC (fluorofolin 6.3, TMP 250 μg ml^−1), one value per replicate

T1 sequence (P0ABQ4 whole entry): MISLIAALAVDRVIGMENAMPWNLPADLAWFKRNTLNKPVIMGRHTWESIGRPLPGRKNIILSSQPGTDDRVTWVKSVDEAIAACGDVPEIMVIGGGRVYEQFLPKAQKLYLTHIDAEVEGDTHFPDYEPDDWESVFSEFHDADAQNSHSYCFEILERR

Nc1nc(N)c2c(ccc3c2ccn3Cc2ccnc(F)c2)n1 [fluorofolin]
MIC ([1]; Pseudomonas aeruginosa, PA14): 3.1 µg/mL | MIC ([1]; Pseudomonas aeruginosa, PA14, 16 h): 3.12 µg/mL | MIC ([1]; Wildtype PA14, control for each drug stock): 3.1 µg/mL | MIC [2]: 0.312 µg/mL | MIC [3]: 0.312 µg/mL | MIC [4]: 0.8 µg/mL (≈ 2.59 µM) | MIC [5]: 7.11 µg/mL (≈ 23.1 µM) | IC50 [6]: 2.5 ± 1.1 nM | fractional initial velocity ([6]; Fluorofolin 9.91e-5 uM): 1.007 | fractional initial velocity ([6]; Fluorofolin 0.000507393 uM): 1.009 | fractional initial velocity ([6]; Fluorofolin 0.000792664 uM): 0.7937 | fractional initial velocity ([6]; Fluorofolin 0.00101479 uM): 0.7819 | fractional initial velocity ([6]; Fluorofolin 0.00152192 uM): 0.9341 | fractional initial velocity ([6]; Fluorofolin 0.00158533 uM): 0.5604 | fractional initial velocity ([6]; Fluorofolin 0.00202957 uM): 0.702 | fractional initial velocity ([6]; Fluorofolin 0.00405914 uM): 0.5491 | fractional initial velocity ([6]; Fluorofolin 0.00608766 uM): 0.1317 | fractional initial velocity ([6]; Fluorofolin 0.00634131 uM): 0.5169 | fractional initial velocity ([6]; Fluorofolin 0.00811828 uM): 0.197 | fractional initial velocity ([6]; Fluorofolin 0.0121753 uM): 0.07555 | fractional initial velocity ([6]; Fluorofolin 0.0126826 uM): 0.0002002 | fractional initial velocity ([6]; Fluorofolin 0.0162366 uM): 0.3634 | fractional initial velocity ([6]; Fluorofolin 0.0253653 uM): 0.0004461 | fractional initial velocity ([6]; Fluorofolin 0.0324731 uM): -0.0327 | change of AICAR and dUMP ([7]; 2× MIC): significant upregulation | Normalized Ion Counts AICAR [7, 9]: 667209 and 798823 and 294672 | Normalized Ion Counts GAR [7, 9]: 62925.5 and 135659 and 3851.78 | Normalized Ion Counts dUMP [7, 9]: 5000000 and 3000000 and 2000000 | rescue of growth inhibition by thymidine supplementation alone [8]: Rescue from fluorofolin inhibition was also shown
